≈ marks a conversion by molar mass, not a printed value.

The nature of one data set: pKa value. The class given is physicochemical.
The nature of data set [1]: Precipitation on addition of acidic prodrug solution to phosphate buffer pH 7.4. The class given is physicochemical. The protocol: At appropriate time intervals, samples were withdrawn and centrifuged for 5 min at 13,000 rpm and the supernatant was analysed by HPLC for DPX-4-0001 and formed ketorolac. The HPLC method described in Example 26 was applied. […] A slight increase in the ketorolac concentration is the result of pH dependent hydrolysis of the prodrug bond (FIG. 3).
The pH in the suspension was measured to 7.0.

Data set [2] in a line: Solubility of the prodrugs in PBS (67 mM phosphate buffer pH 7.4). The following applies: for solubility: 67 mM phosphate buffer (PBS); for solubility / solubility thermodynamic: pH 7.4, aqueous buffer, thermodynamic from solid; for solubility thermodynamic: 67 mM phosphate buffer pH 7.4 (PBS), 37 °C; for Sprodrug ± SD: PBS (67 mM phosphate buffer pH 7.4), 37° C.
Method: The determination of the solubility of a prodrug at different pH values of interest according to the present invention is carried by adding excess solid prodrug to a container containing a buffer solution with well-defined pH. The mixture is rotated at constant temperature until an equilibrium between solid prodrug and prodrug in solution has established (that is until the prodrug concentration in the supernatant remains constant). At each measurement the pH of the supernatant is controlled and, if needed, adjusted to the desired pH.
Suspensions of the prodrugs in 67 mM phosphate buffer pH 7.4 (PBS) were prepared by adding 10 mL PBS to approximately 5 mg prodrug. The suspensions were kept unstirred at 37° C. in an incubator hood. At appropriate time intervals over 23 days, about 500 μL samples were taken and after filtration (disposable syringe filters), the solutions were analyzed immediately by HPLC for parent drug and remaining prodrug. Quantitation of parent drug and prodrug was done from peak area measurements in relations to those of standards analysed by HPLC at the same conditions. […] For the diclofenac and ibuprofen prodrugs, the following method was used: Merck Hitachi L 6000 pump connected to Merck Hitachi 4250 UV detector. Reversed phase chromatography was performed using a C18 Gemini® RP column (150×4.6 mm, 5 μm particles) (Phenomenex, Torrance, Calif., USA) equipped with a SecurityGuard precolumn (Phenomenex, Torrance, Calif., USA). The flow rate was set at 1 mL/min and the column effluent was monitored at 230 nm. The mobile phase consisted of 35% (v/v) acetonitrile and 65% (v/v) of 0.1% (v/v) phosphoric acid pH 3.2. The retention times varied in the range of 3 to 30 min.
From the observed relatively stable concentration of dissolved prodrugs measured in the suspensions after 8-9 day up to 23 days, the solubilities of the prodrugs (Sprodrug) were determined.
The nature of data set [3]: Solubility at acidic pH, with and without DMA cosolvent. The class given is physicochemical. On the procedure:
A suspension of DPX-2-0007 (as hydrochloride salt) was formed by adding 30 mg to 4 mL demineralized water. After rotation of the suspension at 37° C. for 3 days, 1.0 mL sample was taken and after filtration (disposable syringe filters), the solution was diluted in methanol:water 1:1 and analyzed immediately by HPLC for prodrug. […] The pH in the solution was measured to 3.40. The following HPLC method was used: Merck Hitachi L 6200 pump connected to Merck Hitachi 4250 UV detector. Reversed phase chromatography was performed using a RP 18 Symmetry Shields® column (150×4.6 mm, 5 μm particles) equipped with a SecurityGuard precolumn (Phenomenex, Torrance, Calif., USA). […] The retention time of naproxen and DPX-2-0007 were 19 and 5.8 min, respectively.
A suspension of DPX-2-0006 was formed by adding 10 mg to 3 mL demineralized water, 0.05 mL 0.100 M HCl was added to obtain a pH of 3. After rotation of the suspension at 37° C. for 1 days, 0.5 mL sample was taken and after filtration (disposable syringe filters), the solution was diluted in methanol:water 1:1 and analyzed immediately by HPLC for prodrug. […] The HPLC method described in Example 29 was applied and the retention time of DPX-2-0006 was 14 min, respectively. N,N-dimethylacetamide (DMA) was added stepwise to the acidic suspension of DPX-2-0006 and the amount of DPX-2-000 dissolved in the presence of various volumes of DMA was determined after 1-3 days rotation at 37° C. as described above.

A short description of data set [4]: Hydrolysis of the prodrugs in 80% human plasma. The class given is in vitro ADME. The following applies: hydrolysis in 80% human plasma at 37° C.; read-out: t1/2 in plasma.
Method: At 37±0.5° C., the hydrolysis rate of the prodrugs was measured in 80% human plasma. An appropriate aliquot (20-100 μL) of 1 mg/ml prodrug solution in methanol was transferred to 5.0 ml of preheated plasma. At appropriate time intervals, 300 μl sample aliquots were withdrawn and transferred to 600 μl acetonitrile and mixed thoroughly. After centrifugation at 13500 rpm for 5 min, the supernatant was analyzed by HPLC for parent drug and remaining prodrug.
Data set [5] can be described thus: Stability (cleavage to parent drug) of prodrug suspensions in PBS pH 7.4. The class given is physicochemical.
Method: Suspensions of the prodrugs in 67 mM phosphate buffer pH 7.4 (PBS) were prepared by adding 10 mL PBS to approximately 5 mg prodrug. The suspensions were kept unstirred at 37° C. in an incubator hood. At appropriate time intervals over 23 days, about 500 μL samples were taken and after filtration (disposable syringe filters), the solutions were analyzed immediately by HPLC for parent drug and remaining prodrug. Quantitation of parent drug and prodrug was done from peak area measurements in relations to those of standards analysed by HPLC at the same conditions.
From the observed relatively stable concentration of dissolved prodrugs measured in the suspensions after 8-9 day up to 23 days, the solubilities of the prodrugs (Sprodrug) were determined. In this time interval, the rate of appearance of parent drug was determined and an apparent pseudo-zero-order rate constant (k0) was obtained. By assuming that the dissolution rates were much faster than the conversion of the prodrugs to the parent drug, pseudo first-order rate constants (khyd) for cleavage of the prodrugs were calculated according to:
Data set [6] is described as follows: Stability of a suspension of DPX-4-0001 in 67 mM phosphate buffer pH 7.4 (comparison to SF). The class given is physicochemical. The settings on record: suspension in 67 mM phosphate buffer pH 7.4, 37° C. The protocol: (§1) The stability of a suspension of DPX-4-0001 in 80% human synovial fluid pH 7.4 (SF) from arthritis patients was investigated at 37° C. The reaction was initiated by adding 5 ml preheated SF to 2 mg DPX-4-0001. At appropriate time intervals, 400 μl samples were taken and centrifuged for 5 min at 13.000 rpm and 200 μl of the supernatant was deproteinised with 400 μl acetonitrile. After centrifugation for 4 min at 13000 rpm, the supernatant was analysed by HPLC for DPX-4-0001 as well as formed ketorolac. The HPLC method described in Example 26 was applied.
For comparison, the stability of a suspension of DPX-4-0001 in 67 mM phosphate buffer pH 7.4 was investigated by the same procedure at 37° C. […] Since the synovial disappearance half-lives of small-molecule drugs are in the range 2-5 h, the concentration of the active agent in the joint space is determined by the prodrug properties (i) solubility, (ii) degree of protein binding, and (iii) rate of cleavage of the prodrug bond, as well as (iv) the administered dose.

Data set [7] in a line: Stability of a suspension of prodrug in 80% human synovial fluid pH 7.4, formation of ketorolac. The class given is in vitro ADME. The settings on record: after 21 hours. The protocol:
as §1

Regarding `CN(C)c1ccc(CCO)cc1` [IPU 1, 4-(hydroxyethyl)-N,N-dimethylaniline], the pKa in “pKa value” was roughly 5.2.

`COc1ccc2cc(C(C)C(=O)OCCn3ccnc3-c3ccccc3)ccc2c1` (centres unmarked) [DPX-2-0007, 2-(2-phenyl-1H-imidazol-1-yl)ethyl 2-(6-methoxynaphthalen-2-yl)propanoate]: the “precipitation after addition to buffer” value in data set [1] (1.0 mL aqueous solution pH 3.4 added to 1.0 mL 67 mM phosphate buffer pH 7.4) is “a precipitation was immediately observed”. Besides, in data set [2], the solubility amounted to 7 µg/mL (≈ 17.5 µM), the thermodynamic solubility worked out at 16 ± 1 µM (≈ 6.41 µg/mL) and the “Sprodrug ± SD” value amounted to 7 ± 1 µg/mL. Further, the solubility at 3 days in data set [3] (demineralized water, 37 °C, pH 3.4, water, thermodynamic from solid, pH 3.4, hydrochloride salt in demineralized water, 3 days) was determined as 6800 µg/mL. Besides, the “fold increase in solubility at pH 3.4 compared to buffer pH 7.4 (PBS)” value in data set [3] (pH 3.4 vs pH 7.4) came out at 1000 fold. For the same compound, the half-life in data set [4] was found to be 1.03 h. Moreover, the half-life at 0.5 mg/mL in data set [5] (67 mM phosphate buffer (PBS), PBS pH 7.4, 37° C., read-out: t1/2 in PBS (converted)) is 264 h. The “apparent pseudo-zero-order rate constant k0” value in data set [5] (appearance of parent drug in PBS pH 7.4 suspension, 37° C.) worked out at 1e-06 M/day. For the same compound, the “estimated pseudo first-order rate constant khyd” value in data set [5] (cleavage of prodrug in PBS pH 7.4, 37° C., calculated from k0 and Sprodrug) is 0.065 day⁻¹.

As to `CN(C)c1ccc(CCOC(=O)C2CCn3c(C(=O)c4ccccc4)ccc32)cc1` (centres unmarked) [DPX-4-0001, 4-(dimethylamino)phenethyl 5-benzoyl-2,3-dihydro-1H-pyrrolizine-1-carboxylate], in data set [1] (67 mM phosphate buffer pH 7.4, over 25 h), the “dissolved prodrug concentration after initial precipitation phase” value was “low and fairly constant concentration”. Moreover, the “precipitation after addition to buffer” value in data set [1] (300 μl of solution in 0.01 M HCl added to 5 ml 67 mM phosphate buffer pH 7.4, no esterases) is on record as “a precipitation process was observed”. Also, in data set [2], the solubility is roughly 0.05 µg/mL (≈ 0.124 µM), the thermodynamic solubility amounted to 0.1 ± 0.1 µM (≈ 0.0402 µg/mL) and the “Sprodrug ± SD” value is 0.05 ± 0.03 µg/mL. In “pKa value”, this compound had a pKa of roughly 5.2. Moreover, in data set [3] (buffer solution, pH 2.02, aqueous buffer, thermodynamic from solid, pH 2.02, hydrochloride salt), the solubility turned out to be 65 µg/mL. Besides, in data set [3] (pH 2.02 vs pH 7.4), the “fold decrease in solubility from pH 2.02 to pH 7.4” value worked out at 1300 fold. Further, in data set [6], the “degradation of prodrug (to ketorolac) in phosphate buffer” value is given as “no significant degradation” and the “final prodrug concentration in phosphate buffer” value is recorded as “about 8×10^−7 M”. The “concentration of dissolved prodrug in SF” value in data set [7] (80% human synovial fluid pH 7.4, 37° C.) is on record as “about 2.2×10^−5 M”. Besides, in data set [7] (80% human synovial fluid, 37° C.), the “conversion of the added amount of prodrug” value is recorded as 28%.
